According to ChEMBL document CHEMBL3763046 (Bioorg Med Chem, 2016):
pIC50: −log10 of the molar value.

Assays:
A549 [1] = assay: Cytotoxicity against human A549 cells after 72 hrs by MTT assay; type: functional, cell-based; conditions: A549, 72 h
Mus musculus [2] = assay: AUC (0 to infinity) in mouse at 20 mg/kg, iv or 35 mg/kg, po administered as single dose by LC/MS/MS analysis; type: ADME, organism-based; conditions: in vivo
Mus musculus [3] = assay: Tmax in mouse at 35 mg/kg, po administered as single dose by LC/MS/MS analysis; type: ADME, organism-based; conditions: in vivo
Mus musculus [4] = assay: Cmax in mouse at 35 mg/kg, po administered as single dose measured at 0.25 to 24 hrs by LC/MS/MS analysis; type: ADME, organism-based; set-up: dose 35 mg/kg, route oral; conditions: in vivo
MDA-MB-231 = assay: Cytotoxicity against human MDA-MB-231 cells after 72 hrs by MTT assay; type: functional, cell-based; conditions: MDA-MB-231, 72 h
[5] = Cytotoxicity against human MKN45 cells after 72 hrs by MTT assay; conditions: MKN-45, 72 h
Mus musculus [6] = assay: Half life in mouse at 20 mg/kg, iv or 35 mg/kg, po administered as single dose by LC/MS/MS analysis; type: ADME, organism-based; conditions: in vivo
HT-29 [7] = assay: Cytotoxicity against human HT-29 cells after 72 hrs by MTT assay; conditions: HT-29, 72 h
[8] = Mean residence time (0 to infinity) in mouse at 20 mg/kg, iv or 35 mg/kg, po administered as single dose by LC/MS/MS analysis; type: ADME, organism-based; conditions: in vivo
Mus musculus [9] = assay: Apparent oral clearance in mouse at 35 mg/kg, po administered as single dose measured at 0.25 to 24 hrs by LC/MS/MS analysis; type: ADME, organism-based; conditions: in vivo
[10] = Apparent volume of distribution during terminal phase in mouse at 35 mg/kg, po administered as single dose measured at 0.25 to 24 hrs by LC/MS/MS analysis; type: ADME, organism-based; conditions: in vivo, read-out: Vz/F
[11] = Antitumor activity against human MKN45 cells xenografted in Balb/c mouse assessed as tumor growth inhibition at 50 mg/kg, po bid for 24 days relative to control; type: functional, MKN-45; set-up: scale not given: the % may be the effect or the level left
HT-29 [12] = assay: Potency index, ratio of IC50 for foretinib to IC50 for test compound for cytotoxicity against human HT-29 cells; type: functional
HT-29 [13] = assay: Antitumor activity against human HT-29 cells xenografted in Balb/c mouse assessed as tumor growth inhibition at 50 mg/kg, po bid for 27 days relative to control; type: functional; set-up: scale not given: the % may be the effect or the level left
PBL = assay: Cytotoxicity against human PBL cells after 72 hrs by MTT assay; type: cell-based
[14] = target: Mast/stem cell growth factor receptor Kit (Homo sapiens, UniProt P10721); assay: Inhibition of c-kit (unknown origin) using poly(glu,Tyr)4:1 as substrate incubated for 30 mins by homogeneous time-resolved fluorescence assay
[15] = target: Hepatocyte growth factor receptor (Homo sapiens, UniProt P08581); assay: Inhibition of c-Met kinase (unknown origin) using poly(glu,Tyr)4:1 as substrate incubated for 30 mins by homogeneous time-resolved fluorescence assay
Mus musculus [16] = assay: Toxicity in Balb/c mouse xenografted with human MKN45 cells assessed as change in body weight at 50 mg/kg, po bid for 24 days; type: organism-based, MKN-45; conditions: in vivo, 576 h
Mus musculus [17] = assay: Toxicity in Balb/c mouse xenografted with human HT-29 cells assessed as change in body weight at 50 mg/kg, po bid for 27 days; type: organism-based; conditions: in vivo, 648 h
[18] = target: Epidermal growth factor receptor (Homo sapiens, UniProt P00533); assay: Inhibition of EGFR (unknown origin) using poly(glu,Tyr)4:1 as substrate incubated for 30 mins by homogeneous time-resolved fluorescence assay
Sequence of Epidermal growth factor receptor (P00533 whole entry): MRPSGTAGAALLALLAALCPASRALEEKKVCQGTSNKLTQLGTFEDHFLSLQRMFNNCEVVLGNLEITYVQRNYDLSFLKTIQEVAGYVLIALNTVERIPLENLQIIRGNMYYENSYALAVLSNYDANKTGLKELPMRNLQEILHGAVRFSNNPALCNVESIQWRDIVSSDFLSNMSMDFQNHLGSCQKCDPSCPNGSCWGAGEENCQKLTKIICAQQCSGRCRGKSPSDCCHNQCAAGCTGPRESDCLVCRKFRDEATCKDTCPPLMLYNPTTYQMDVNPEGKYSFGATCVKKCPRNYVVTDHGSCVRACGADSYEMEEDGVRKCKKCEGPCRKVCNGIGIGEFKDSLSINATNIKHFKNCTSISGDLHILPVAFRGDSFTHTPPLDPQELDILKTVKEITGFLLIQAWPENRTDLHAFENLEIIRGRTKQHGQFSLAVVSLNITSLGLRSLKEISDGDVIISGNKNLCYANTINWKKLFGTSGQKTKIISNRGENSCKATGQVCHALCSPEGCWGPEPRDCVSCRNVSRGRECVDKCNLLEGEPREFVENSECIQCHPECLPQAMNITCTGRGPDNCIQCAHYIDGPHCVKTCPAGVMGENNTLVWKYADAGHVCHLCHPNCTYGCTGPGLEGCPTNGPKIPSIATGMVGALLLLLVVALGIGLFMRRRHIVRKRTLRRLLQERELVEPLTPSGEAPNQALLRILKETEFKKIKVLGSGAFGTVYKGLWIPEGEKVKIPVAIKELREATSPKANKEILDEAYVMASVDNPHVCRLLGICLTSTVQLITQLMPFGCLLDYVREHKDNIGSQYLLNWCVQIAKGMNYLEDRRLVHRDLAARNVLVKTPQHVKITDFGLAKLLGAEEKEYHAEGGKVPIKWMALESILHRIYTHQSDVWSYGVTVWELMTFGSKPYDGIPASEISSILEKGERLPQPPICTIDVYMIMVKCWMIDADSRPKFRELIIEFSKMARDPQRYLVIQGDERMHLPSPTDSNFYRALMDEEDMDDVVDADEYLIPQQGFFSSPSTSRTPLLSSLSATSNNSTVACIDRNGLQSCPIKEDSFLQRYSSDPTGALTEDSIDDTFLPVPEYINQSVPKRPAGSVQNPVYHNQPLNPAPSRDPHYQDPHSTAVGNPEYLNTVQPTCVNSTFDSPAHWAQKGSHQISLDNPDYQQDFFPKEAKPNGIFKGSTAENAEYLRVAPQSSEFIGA

[19] = target: Platelet-derived growth factor receptor alpha (Homo sapiens, UniProt P16234); assay: Inhibition of PDGFR-alpha (unknown origin) using poly(glu,Tyr)4:1 as substrate incubated for 30 mins by homogeneous time-resolved fluorescence assay
Sequence of Platelet-derived growth factor receptor alpha (P16234 whole entry): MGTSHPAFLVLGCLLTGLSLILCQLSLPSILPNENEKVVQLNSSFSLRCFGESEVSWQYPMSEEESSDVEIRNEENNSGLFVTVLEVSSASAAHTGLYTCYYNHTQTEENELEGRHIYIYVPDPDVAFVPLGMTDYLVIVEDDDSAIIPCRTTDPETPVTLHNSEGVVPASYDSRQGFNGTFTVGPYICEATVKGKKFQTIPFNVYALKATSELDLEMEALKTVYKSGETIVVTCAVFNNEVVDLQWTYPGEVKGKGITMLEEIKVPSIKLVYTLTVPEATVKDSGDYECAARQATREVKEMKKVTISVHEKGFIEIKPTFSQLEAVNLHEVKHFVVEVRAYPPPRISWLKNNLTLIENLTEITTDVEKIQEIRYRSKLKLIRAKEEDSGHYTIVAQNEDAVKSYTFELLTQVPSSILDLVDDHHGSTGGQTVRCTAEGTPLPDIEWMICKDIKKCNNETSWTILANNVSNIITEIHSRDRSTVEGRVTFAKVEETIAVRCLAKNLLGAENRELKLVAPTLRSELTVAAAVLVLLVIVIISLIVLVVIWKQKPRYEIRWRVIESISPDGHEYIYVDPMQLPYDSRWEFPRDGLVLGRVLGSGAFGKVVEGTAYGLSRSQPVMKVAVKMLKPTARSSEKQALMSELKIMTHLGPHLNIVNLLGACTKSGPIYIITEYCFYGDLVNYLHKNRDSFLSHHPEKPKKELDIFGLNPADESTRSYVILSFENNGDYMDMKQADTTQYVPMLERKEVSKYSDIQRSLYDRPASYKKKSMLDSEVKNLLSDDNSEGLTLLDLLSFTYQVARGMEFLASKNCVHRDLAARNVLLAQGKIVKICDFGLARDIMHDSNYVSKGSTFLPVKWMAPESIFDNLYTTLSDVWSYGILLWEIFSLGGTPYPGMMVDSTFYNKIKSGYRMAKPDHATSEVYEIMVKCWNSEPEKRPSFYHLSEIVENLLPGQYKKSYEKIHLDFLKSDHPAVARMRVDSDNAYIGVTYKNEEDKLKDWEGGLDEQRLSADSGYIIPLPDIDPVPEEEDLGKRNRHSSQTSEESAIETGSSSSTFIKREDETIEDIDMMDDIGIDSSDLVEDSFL

[20] = Potency index, ratio of IC50 for foretinib to IC50 for test compound for cytotoxicity against human MKN45 cells; type: functional, MKN-45
[21] = target: Macrophage-stimulating protein receptor (Homo sapiens, UniProt Q04912); assay: Inhibition of Ron (unknown origin) using poly(glu,Tyr)4:1 as substrate incubated for 30 mins by homogeneous time-resolved fluorescence assay
Sequence of Macrophage-stimulating protein receptor (Q04912 25-304 limits assumed): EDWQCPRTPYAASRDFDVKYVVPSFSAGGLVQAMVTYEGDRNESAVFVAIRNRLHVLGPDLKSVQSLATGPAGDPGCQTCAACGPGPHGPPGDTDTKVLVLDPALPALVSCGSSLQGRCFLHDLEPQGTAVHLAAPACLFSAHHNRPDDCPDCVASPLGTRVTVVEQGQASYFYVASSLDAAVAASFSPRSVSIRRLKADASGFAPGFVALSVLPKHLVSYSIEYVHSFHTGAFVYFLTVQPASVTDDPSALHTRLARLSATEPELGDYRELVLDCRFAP
Sequence of Macrophage-stimulating protein receptor (Q04912 310-1400 limits assumed): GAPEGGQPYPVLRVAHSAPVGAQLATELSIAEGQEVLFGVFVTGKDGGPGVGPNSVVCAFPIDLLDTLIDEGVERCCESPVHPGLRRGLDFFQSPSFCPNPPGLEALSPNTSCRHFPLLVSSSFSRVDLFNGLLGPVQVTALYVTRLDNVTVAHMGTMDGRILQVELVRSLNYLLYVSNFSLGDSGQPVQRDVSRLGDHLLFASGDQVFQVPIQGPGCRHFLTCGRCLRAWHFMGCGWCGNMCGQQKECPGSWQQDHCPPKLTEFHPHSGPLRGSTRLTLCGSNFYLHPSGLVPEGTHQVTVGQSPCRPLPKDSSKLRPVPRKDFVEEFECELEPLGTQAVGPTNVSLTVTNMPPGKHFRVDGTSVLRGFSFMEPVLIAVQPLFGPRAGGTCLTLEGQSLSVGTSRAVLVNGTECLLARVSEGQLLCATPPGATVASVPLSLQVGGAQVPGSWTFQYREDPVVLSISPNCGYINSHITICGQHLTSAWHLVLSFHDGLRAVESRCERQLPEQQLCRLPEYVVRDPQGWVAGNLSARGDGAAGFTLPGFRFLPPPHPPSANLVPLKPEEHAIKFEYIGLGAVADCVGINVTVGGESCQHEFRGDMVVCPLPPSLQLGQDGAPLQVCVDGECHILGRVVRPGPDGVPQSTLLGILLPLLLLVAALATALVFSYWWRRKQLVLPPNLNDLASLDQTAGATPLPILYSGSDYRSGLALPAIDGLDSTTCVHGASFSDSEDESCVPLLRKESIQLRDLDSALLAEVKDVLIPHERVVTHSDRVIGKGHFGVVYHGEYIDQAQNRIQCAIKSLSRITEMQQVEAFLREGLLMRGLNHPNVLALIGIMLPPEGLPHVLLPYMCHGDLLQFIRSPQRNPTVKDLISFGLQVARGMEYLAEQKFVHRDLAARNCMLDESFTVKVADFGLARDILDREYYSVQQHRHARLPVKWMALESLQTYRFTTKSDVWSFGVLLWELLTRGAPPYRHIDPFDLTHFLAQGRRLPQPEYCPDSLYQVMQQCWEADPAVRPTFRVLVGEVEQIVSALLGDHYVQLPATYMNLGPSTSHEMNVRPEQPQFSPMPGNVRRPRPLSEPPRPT

A549 [22] = assay: Potency index, ratio of IC50 for foretinib to IC50 for test compound for cytotoxicity against human A549 cells; type: functional
[23] = target: T1, Receptor-type tyrosine-protein kinase FLT3 (Homo sapiens, UniProt P36888); assay: Inhibition of Flt-3 (unknown origin) using poly(glu,Tyr)4:1 as substrate incubated for 30 mins by homogeneous time-resolved fluorescence assay
T1 sequence (P36888 whole entry): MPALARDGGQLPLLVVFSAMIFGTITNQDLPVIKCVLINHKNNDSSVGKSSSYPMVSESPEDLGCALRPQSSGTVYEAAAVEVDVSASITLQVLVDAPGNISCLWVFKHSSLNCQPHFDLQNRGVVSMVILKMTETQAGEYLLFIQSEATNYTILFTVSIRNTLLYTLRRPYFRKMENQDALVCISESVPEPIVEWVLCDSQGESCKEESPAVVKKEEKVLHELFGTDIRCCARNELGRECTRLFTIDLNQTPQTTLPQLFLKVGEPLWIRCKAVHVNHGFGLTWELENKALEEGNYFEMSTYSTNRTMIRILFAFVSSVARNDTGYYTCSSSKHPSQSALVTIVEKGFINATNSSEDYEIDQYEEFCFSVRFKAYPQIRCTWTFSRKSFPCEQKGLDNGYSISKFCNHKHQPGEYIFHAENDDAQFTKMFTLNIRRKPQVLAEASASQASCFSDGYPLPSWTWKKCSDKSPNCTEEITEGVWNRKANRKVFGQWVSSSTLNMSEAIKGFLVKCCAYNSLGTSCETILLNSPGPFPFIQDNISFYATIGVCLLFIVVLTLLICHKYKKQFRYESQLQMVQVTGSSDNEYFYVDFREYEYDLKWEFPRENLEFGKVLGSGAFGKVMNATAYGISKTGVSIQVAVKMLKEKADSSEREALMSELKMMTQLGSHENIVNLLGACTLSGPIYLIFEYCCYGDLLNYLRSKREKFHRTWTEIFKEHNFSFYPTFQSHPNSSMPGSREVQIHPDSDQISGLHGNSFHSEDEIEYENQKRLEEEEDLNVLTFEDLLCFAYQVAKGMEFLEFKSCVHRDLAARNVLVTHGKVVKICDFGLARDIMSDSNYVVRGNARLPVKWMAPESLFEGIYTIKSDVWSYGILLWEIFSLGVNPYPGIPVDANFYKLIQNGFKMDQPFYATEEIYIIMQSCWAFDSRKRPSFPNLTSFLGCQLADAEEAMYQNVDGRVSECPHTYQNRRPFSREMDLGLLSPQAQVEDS

[24] = target: Vascular endothelial growth factor receptor 2 (Homo sapiens, UniProt P35968); assay: Inhibition of KDR (unknown origin) using poly(glu,Tyr)4:1 as substrate incubated for 30 mins by homogeneous time-resolved fluorescence assay
Sequence of Vascular endothelial growth factor receptor 2 (P35968 whole entry): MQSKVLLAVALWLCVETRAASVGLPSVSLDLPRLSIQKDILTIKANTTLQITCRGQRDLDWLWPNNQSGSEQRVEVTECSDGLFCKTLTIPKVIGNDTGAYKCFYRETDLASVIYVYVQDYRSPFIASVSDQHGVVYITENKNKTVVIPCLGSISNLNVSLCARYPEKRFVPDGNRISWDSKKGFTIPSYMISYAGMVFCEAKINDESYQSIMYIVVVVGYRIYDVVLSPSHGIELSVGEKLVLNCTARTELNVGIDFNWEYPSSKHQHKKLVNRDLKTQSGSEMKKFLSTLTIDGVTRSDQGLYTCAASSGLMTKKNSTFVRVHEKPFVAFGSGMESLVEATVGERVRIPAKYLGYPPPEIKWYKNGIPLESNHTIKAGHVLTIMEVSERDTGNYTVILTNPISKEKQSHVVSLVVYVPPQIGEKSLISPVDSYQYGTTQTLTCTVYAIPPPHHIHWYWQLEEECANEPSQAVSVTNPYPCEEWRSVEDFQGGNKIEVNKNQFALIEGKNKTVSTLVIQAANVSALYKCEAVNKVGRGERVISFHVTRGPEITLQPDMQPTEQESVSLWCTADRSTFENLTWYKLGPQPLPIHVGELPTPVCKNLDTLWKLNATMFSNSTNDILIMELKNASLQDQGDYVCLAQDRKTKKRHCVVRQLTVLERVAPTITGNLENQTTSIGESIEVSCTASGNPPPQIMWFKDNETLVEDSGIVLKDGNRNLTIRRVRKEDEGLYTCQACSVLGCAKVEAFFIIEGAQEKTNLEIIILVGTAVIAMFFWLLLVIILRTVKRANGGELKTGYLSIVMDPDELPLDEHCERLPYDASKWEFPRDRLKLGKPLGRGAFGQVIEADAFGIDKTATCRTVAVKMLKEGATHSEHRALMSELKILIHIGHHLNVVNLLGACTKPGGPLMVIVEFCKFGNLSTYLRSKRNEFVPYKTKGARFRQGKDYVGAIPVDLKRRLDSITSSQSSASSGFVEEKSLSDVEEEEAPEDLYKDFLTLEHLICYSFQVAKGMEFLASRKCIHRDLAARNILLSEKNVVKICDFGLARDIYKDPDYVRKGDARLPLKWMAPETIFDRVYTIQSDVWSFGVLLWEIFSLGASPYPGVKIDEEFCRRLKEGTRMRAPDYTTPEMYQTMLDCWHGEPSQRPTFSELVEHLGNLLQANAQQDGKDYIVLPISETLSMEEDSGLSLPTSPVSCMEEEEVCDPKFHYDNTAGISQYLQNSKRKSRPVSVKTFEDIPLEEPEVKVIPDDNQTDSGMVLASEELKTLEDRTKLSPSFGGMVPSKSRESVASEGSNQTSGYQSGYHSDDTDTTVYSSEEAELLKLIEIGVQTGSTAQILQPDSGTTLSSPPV

| SMILES | pIC50 (A549 [1]) | AUC (Mus musculus [2]) [ng·h/mL] | Tmax (Mus musculus [3]) [h] | Cmax (Mus musculus [4]) [ng/mL] | pIC50 (MDA-MB-231) | pIC50 [5] | t1/2 (Mus musculus [6]) [h] | pIC50 (HT-29 [7]) | MRT inf [8] [h] | Vd/F [10] [L/kg] | other results |
| --- | --- | --- | --- | --- | --- | --- | --- | --- | --- | --- | --- |
| COc1cc2c(Oc3ccc(NC(=O)N/N=C/c4ccc(F)cc4Cl)cc3F)ccnc2cc1OCCCN1CCCCC1 | 6.89 | 910 | 0.75 | 78 | 6.10 | 6.57 | 3.3 | 6.59 | 13.2 | 371 | CL/F (Mus musculus [9]): 1334 mL/min/kg |
| C=CCc1cccc(/C=N/NC(=O)Nc2ccc(Oc3ccnc4cc(OCCCN5CCCCC5)c(OC)cc34)c(F)c2)c1O | 7.96 | 16500 | 6 | 680 | 6.36 | 7.41 | 13.75 | 7.57 | 23.4 | 43.9 | Activity [11]: 70.18%; Ratio IC50 (HT-29 [12]): 9.6; Activity (HT-29 [13]): 65.86%; pIC50 (PBL): 3.97; pIC50 [14]: 6.79; pIC50 [15]: 8.81; Activity (Mus musculus [16]): Non-toxic; Activity (Mus musculus [17]): Non-toxic; pIC50 [18]: < 4.00; pIC50 [19]: 6.67; Ratio IC50 [20]: 1.7; pIC50 [21]: 7.84; Ratio IC50 (A549 [22]): 15.4; pIC50 [23]: 6.44; pIC50 [24]: 6.68 |
